Experimental data taken from paper PMC3023844 (Planta medica, 2010).
Read-outs that look alike come from different tables or passages of the source.

Key:
CYP3A (intestinal) [1] = target: T1, CYP3A (intestinal) (Homo sapiens, UniProt P08684); assay: in vitro; details: microsomes, pH 7.4, IC50, HIM as the enzyme source
[2] = target: recombinant CYP3A4 (rCYP3A4) (Homo sapiens, UniProt P08684); assay: IC50 of triterpenes for midazolam 1′-hydroxylation using recombinant CYP3A4
CYP3A (intestinal) [3] = target: T1, CYP3A (intestinal); details: microsomes, pH 7.4
CYP3A = details: read-out: IC50 or Ki values determined previously; CYP3A inhibitors in grapefruit juice; cited from earlier work

`C[C@H]1[C@H](C)CC[C@]2(C(=O)O)CC[C@]3(C)C(=CC[C@@H]4[C@@]5(C)C[C@@H](O)[C@H](O)C(C)(C)[C@@H]5CC[C@]43C)[C@H]12` [Corosolic acid (3), 2α,3β-dihydroxyurs-12-en-28-oic acid] showed an IC50 (CYP3A (intestinal) [1]) of 8.8 ± 0.9 µM and an IC50 [2] of 4.3 ± 0.3 µM.
With `CC1(C)CC[C@]2(C(=O)O)CC[C@]3(C)C(=CC[C@@H]4[C@@]5(C)C[C@@H](O)[C@H](O)C(C)(C)[C@@H]5CC[C@]43C)[C@@H]2C1` [Maslinic acid (2), 2α,3β-dihydroxyolean-12-en-28-oic acid] the IC50 [2] was 2.8 ± 0.2 µM and the IC50 (CYP3A (intestinal) [3]) was 7.4 ± 0.5 µM.
In the case of `CC(=CCOc1c2ccoc2cc2oc(=O)ccc12)CCC(O)C(C)(C)O` (centres unmarked) [6′,7′-dihydroxybergamottin], the IC50 (CYP3A) is given as 1 to 5 µM.
